Experimental findings from PMC7279487, “Dual Target Ligands with 4-tert-Butylphenoxy Scaffold as Histamine H3 Receptor Antagonists and Monoamine Oxidase B Inhibitors” (International Journal of Molecular Sciences, 2020) are described below.

A value given as a limit tells only on which side of the number the result lay.

One series has as its target T1, human MAO A (Homo sapiens, UniProt P21397).
T1 construct: purchased Sigma Aldrich M7316
T1 sequence (P21397 1-527): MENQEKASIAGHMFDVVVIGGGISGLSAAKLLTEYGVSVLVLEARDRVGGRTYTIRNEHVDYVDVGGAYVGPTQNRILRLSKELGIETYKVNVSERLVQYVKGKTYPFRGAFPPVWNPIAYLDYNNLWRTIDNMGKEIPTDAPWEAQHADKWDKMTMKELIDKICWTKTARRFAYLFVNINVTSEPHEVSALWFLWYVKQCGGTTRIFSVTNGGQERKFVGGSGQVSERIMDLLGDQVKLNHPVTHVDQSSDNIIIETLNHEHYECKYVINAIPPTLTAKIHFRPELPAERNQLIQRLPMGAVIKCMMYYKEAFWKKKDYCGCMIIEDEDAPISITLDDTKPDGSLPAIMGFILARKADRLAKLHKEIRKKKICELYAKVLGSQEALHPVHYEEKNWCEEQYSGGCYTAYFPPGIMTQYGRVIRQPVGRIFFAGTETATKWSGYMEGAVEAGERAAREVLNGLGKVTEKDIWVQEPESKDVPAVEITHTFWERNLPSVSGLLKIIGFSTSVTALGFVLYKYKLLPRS
Nature of the series: hMAO A inhibition, fluorometric Amplex Red MAO assay. The conditions noted are these: mean ± SEM; p-tyramine 200 μM. It counts as biochemical. Here is the method:
Inhibitory potency of compounds on MAO isoenzymes were carried out by a fluorometric method with a commercial Amplex™ Red Monoamine Oxidase Assay Kit (ThermoFisher Scientific A12214, Waltham, MA, USA) as described previously. For all tests, recombinant human MAO B and MAO A (from Sigma AldrichM7441 and M7316, Darmstadt, Germany) were used. Inhibitors’ activity was measured in the presence of p-tyramine (200 μM).
[…] […] All calculations were made in Microsoft Excel and GraphPadPrism software. All experiments were performed in duplicate, and data are expressed as mean ± SEM of 2–5 independent experiments.

The next series deals with T2, hMAO B (Homo sapiens, UniProt P27338).
T2 construct: purchased Sigma Aldrich M7441
T2 sequence (P27338 1-520): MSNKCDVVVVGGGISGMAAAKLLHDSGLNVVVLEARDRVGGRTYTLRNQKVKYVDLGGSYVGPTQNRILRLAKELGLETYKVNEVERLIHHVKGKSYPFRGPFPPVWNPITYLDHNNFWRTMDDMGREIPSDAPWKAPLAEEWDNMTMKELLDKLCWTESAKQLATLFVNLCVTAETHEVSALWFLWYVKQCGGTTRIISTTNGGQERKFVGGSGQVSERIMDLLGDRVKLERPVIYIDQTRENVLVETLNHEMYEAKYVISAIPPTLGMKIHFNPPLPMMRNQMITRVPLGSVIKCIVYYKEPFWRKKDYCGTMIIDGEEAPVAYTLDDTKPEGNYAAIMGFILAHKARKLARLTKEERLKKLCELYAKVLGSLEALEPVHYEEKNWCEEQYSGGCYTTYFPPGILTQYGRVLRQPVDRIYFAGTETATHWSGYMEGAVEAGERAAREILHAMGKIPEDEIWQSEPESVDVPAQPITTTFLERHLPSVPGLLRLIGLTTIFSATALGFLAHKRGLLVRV
Nature of the series: hMAO B inhibition, fluorometric Amplex Red MAO assay. Format: biochemical.

For series [1], the system named is neuroblastoma SH-SY5Y cells. Kind of series: toxicity against SH-SY5Y cells. It counts as cell-based. The conditions noted are these: 10 and 50 µM. Here is the method:
(§1) The used reference cytostatic drug doxorubicin (DX) decreased cell viability <50% under the same conditions at very low concentrations of 0.2 and 0.05 µM. […] Oxidative damage was induced by very high toxic levels of hydrogen peroxide (H2O2; 300 µM), the popular cell model for PD research, in neuroblastoma SH-SY5Y cell line. […] Salsolinol (SAL) was used at a concentration of 50 µM as the reference compound with the proven neuroprotection activity.
SH-SY5Y cells were seeded in microplate at a concentration of 2.5 × 10^4 cells/well in 100 μL culture medium and cultured for 24 h at 37 C and 5% CO2 to reach 70% confluence. […] (R,S)-salsolinol (purity ≥ 99%) was obtained from Cayman Chemical (Ann Arbor, MI, USA). Next, H2O2 was added at final concentration 300 μM and the cells were placed into the incubator. After 24 h of compounds co-incubation with H2O2, the CellTiter 96®AQueous Non-Radioactive Cell Proliferation Assay (MTS) labeling mixture was added to each well, and the microplates were incubated under the same conditions for 5 h. The absorbance was measured using a microplate reader EnSpire (PerkinElmer, Waltham, MA USA) at 490 nm. All measurements were performed in triplicate, and results are shown as mean ± SD.

Another series concerns HEK-293 cells. Nature of the series: toxicity in HEK-293 cells (EZ4U). Format: cell-based, human. The conditions noted are these: 48 h incubation; EZ4U. Here is the method: as §1
The HEK-293 cells were seeded at a concentration of 1.5 × 10^4 cells/well in 200 μL culture medium and incubated for 24 h at 37 °C and 5% CO2. […] Then, 25 μL EZ4U labelling mixture (Biomedica, Vienna, Austria) was added and the cells were incubated for 2 h. The spectrophotometric absorbance of the samples was measured using a microplate reader (EnSpire, PerkinElmer, Waltham, MA, USA) at 492 nm. All measurements were performed in triplicate, and results are shown as mean ± SD.

[2] abbreviates: concentration used in kinetic studies.

Turning to `CC(C)(C)c1ccc(OCCCN2CCCCC2)cc1` [DL76, 1-(3-(4-tert-butylphenoxy)propyl)piperidine], the IC50 at human MAO A is above 10000 nM; against hMAO B (mean ± SEM of 2-5 independent experiments, p-tyramine 200 μM) it was 48 ± 15 nM. The 20% effect level at hMAO B (setting [2]) (IC20) was put at 7 nM. Also, it took 164 nM to reach the 80% level at hMAO B (setting [2]) (IC80). Further, the “toxic effect against SH-SY5Y cells” value in series [1] is given as “no toxic effect”. In the series with HEK-293 cells, the HEK-293 cell viability entry was “observed only at the highest doses of 125 µM and 250 µM”.

As usually defined, the IC50 is the point on the concentration scale where inhibition reaches its midpoint. Read a low IC50 as higher potency. The term IC20 denotes the concentration needed for an effect of 20%. By IC80 is commonly meant the concentration needed for an effect of 80%. Lower therefore signals greater potency.
